The subject of assay [1] is OA-sensitized guinea pigs. Description: Bronchoalveolar lavage cell counts after antigen challenge. It is filed as in vivo, guinea pig. The conditions noted are these: for eosinophil count in BAL fluid: after ovalbumin challenge; for BAL eosinophils: 24 h after OA-challenge; for airway eosinophil influx after antigen challenge: guinea pig, in vivo. As to the method: Analysis of Bronchoalveolar Cells
(§1) After assessment of antigen-induced airway hyperresponsiveness or 24 h after IL-5 injection, airway inflammation was assessed. Immediately before and 1, 24, 48, and 72 h after antigen challenge, bronchoalveolar lavage (BAL) was performed to determine the time-course of cellular infiltration into airways. Two aliquots of 10 ml sterile 37° C. saline were infused into the tracheal cannula. The BAL fluid was recovered manually by gentle aspiration with a disposable syringe after each infusion. The total cell number was determined using a Turk solution. Differential cell counts were performed on cytospin preparations (Cytospin 2, Shandon, England) by counting 300 cells after staining by the May-Grüwald-Giemsa method in a single-blind method.

The next assay concerns guinea pigs. Briefly: IL-5-induced airway eosinophil accumulation (BAL). It is filed as in vivo, guinea pig. To be noted: for BAL eosinophils: 24 h after IL-5 treatment; for airway eosinophil influx after treatment with IL-5: guinea pig, in vivo. As to the method: IL-5-Induced Airway Eosinophil Accumulation
Guinea pigs weighing 350 to 400 g were treated i.p. before IL-5 injection with TFMK (20 mg/kg), E6123 (0.1 mg/kg), or vehicle (n=7 in each group). Animals were lightly anesthetized with diethyl ether inhalation, and then 200 μl sterile PBS containing 20 ng IL-5 was intranasally injected into the airway.
as §1

Assay [2] deals with OA-sensitized guinea pigs. Description: Antigen-induced airway hyperresponsiveness to methacholine (PC200). To be noted: for antigen (ovalbumin)-induced methacholine airway hyperresponsiveness: 24 h after OA challenge; for baseline airway responsiveness to methacholine: drug alone. The assay is classed as in vivo, guinea pig. Here is the method:
(§2) Guinea pigs weighing 200 to 250 g were actively sensitized by a modification of the method reported by Andersson et al., Int. Arch. Allergy Appl. […] Guinea pigs were pretreated with an i.p. injection of 30 mg/kg of cyclophosphamide. Two days later, the animals were immunized with 2.0 mg of ovalbumin and 100 mg of aluminum hydroxide [Al(OH)3]. A booster injection of 10 μg of OA together with 100 mg of Al(OH)3 was given 3 wk after the primary immunization.
Antigen-Induced Airway Hyperresponsiveness to Methacholine
Antigen-induced airway response to methacholine was measured 24 h after challenge. Guinea pigs were anaesthetized by an i.p. injection of 75 mg/kg of sodium pentobarbitone and were placed in a supine position. […] Exp. Path. […] After completion of all surgical procedures, the lungs were overinflated by two times tidal volume for two breaths by closing the outlet port of the respirator. This was done to standardize the volume history of the lungs. […] See Minami et al., Jpn.
Airway responsiveness to inhaled methacholine was expressed as the dose of methacholine required to provoke a 200% increase (PC200) in the Pao. Values for PC200 were logarithmically transformed for analysis and reported as the geometric mean [geometric SEM (GSEM)]. All measurements except for PC200 were expressed as mean±SEM. Variation between three or more groups was analyzed using analysis of variance (ANOVA) followed by Fisher's protected least significant difference. Variation between two groups was tested using Student's t test. A value of p<0.05 was accepted as an indication of statistical significance.

The test system of assay [3] is OA-sensitized guinea pigs. Description: Antigen-induced bronchoconstriction: specific airway resistance (sRaw) after ovalbumin challenge. The conditions noted are these: for sRaw: drug alone; for increase in sRaw caused by OA challenge (immediate bronchoconstriction): pre-treatment i.p. 60 min before antigen challenge. The assay is classed as in vivo, guinea pig.
Source text: Male albino Hartley strain guinea pigs were obtained from Sankyou Laboratory Service (Toyama, Japan), and were quarantined in the Animal Research Center of Kanazawa University for 1 wk before study. All animal procedures in this study complied with the standards specified in the Guideline for the Care and Use of Laboratory Animals at the Takara-machi Campus of Kanazawa University.
as §2
Animals were placed in a whole-body, double-chamber plethysmograph for measurement of specific airway resistance (sRaw) by a modification of the method described by Pennock et al., Appl. […] A respiratory mechanics analyzer (model PMUA+SAR, Buxco Electronics, Troy, N.Y.) was used to measure the phase shift between nasal and thoracic airflow and to compute sRaw on a breath by breath basis. A bias flow of air (20 ml/sec) was maintained through the nasal chamber to ensure a constant supply of fresh air to the animal. The analyzer subtracted this flow from its calculations. […] The nebulizer output was 0.14 ml/min. Baseline measurement of sRaw was obtained in all groups 5 min before antigen challenge.

The next assay has as its target T1, cPLA2 (Homo sapiens, UniProt P47712).
T1 sequence (P47712 1-749): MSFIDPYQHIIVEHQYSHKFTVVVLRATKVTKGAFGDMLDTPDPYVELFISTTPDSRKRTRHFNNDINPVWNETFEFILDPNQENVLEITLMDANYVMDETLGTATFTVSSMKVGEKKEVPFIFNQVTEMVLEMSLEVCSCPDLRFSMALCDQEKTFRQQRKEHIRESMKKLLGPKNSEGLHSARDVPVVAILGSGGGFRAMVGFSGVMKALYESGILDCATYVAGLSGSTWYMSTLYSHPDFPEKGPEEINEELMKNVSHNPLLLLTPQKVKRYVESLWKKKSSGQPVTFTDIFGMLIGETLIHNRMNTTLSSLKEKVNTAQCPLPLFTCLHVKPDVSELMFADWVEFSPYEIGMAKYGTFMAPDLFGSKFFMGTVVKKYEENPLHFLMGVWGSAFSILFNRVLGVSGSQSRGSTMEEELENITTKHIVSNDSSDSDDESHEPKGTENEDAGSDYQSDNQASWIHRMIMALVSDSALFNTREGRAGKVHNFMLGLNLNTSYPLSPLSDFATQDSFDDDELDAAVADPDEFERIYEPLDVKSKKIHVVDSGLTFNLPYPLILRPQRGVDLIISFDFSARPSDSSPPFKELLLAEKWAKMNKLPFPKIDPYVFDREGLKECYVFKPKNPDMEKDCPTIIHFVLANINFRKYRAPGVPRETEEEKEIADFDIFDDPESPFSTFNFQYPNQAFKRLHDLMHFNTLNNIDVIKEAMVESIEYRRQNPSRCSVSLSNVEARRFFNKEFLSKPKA
The conditions noted are these: Zhu et al., J. Immunol. 163:3423-3429, 1999; cited from earlier work.

Assay [4] deals with TXB2 production from whole blood. Description: Effect of i.p. TFMK on TXB2 production ex vivo (FMLP/CB-stimulated whole blood). It is filed as in vivo, guinea pig. The conditions noted are these: FMLP 10^−6 M + 5 μg/ml cytochalasin B; after 20 mg/kg i.p. TFMK. As to the method:
Effect of i.p. TFMK on TXB2 Production ex vivo
Sixty min after TFMK (20 mg/kg or vehicle i.p.; n=4 in each group), guinea pigs were anesthetized and heparinized blood (20 U/ml) was obtained via right carotid artery. Duplicate 1-ml aliquots of whole blood were incubated first with 5 μg/ml CB for 2 min and subsequently with 10^−6 M FMLP for 30 additional min at room temperature. Control samples from the same animals were incubated with buffer alone. Immediately after centrifugation, TXB2 was measured by enzyme immunoassay using reagents obtained from Cayman Chemical (Ann Arbor, Mich.).

The next assay has as its system bronchial airways. Description: Lung histology after ovalbumin challenge. The assay is classed as in vivo, guinea pig. To be noted: 2-20 mg/kg TFMK, 24 h. The text has this: After washing with sterile saline, the lung was fixed by perfusion with 10% formalin. Lung sections were stained with hematoxylin and eosin.

“Also recorded” adds a separate entry of the source. Numbered stars: 1 amine (or outer) side, 2 acyl side, 3 side chain; on linkers, the order of the positions; unused ones are H or OH. Bridge positions count the residues as written; N and C are the ends. Square brackets hold non-standard residues; d marks the D form. Peptide text beside a SMILES is read from it. X1 = CC(C)CCCCCCCCC[C@H](CC(=O)[*:1])O[*:2]

In the case of `CC1=C(C)C(=O)C(CCCCC#CCCCC#CCO)=C(C)C1=O` [AA-861], in assay [1], the “eosinophil count in BAL fluid” value is on record as “no effect”.

For `Cc1nnc2n1-c1sc3c(c1C(c1ccccc1Cl)=N[C@H]2C)CCN(C(=O)C1CC1)C3` [E6123], in the assay on guinea pigs, the BAL eosinophils is on record as 0.4±0.1 ×10^5/ml and the “airway eosinophil influx after treatment with IL-5” value was “dose-dependently blocked”. In the assay on guinea pigs (after IL-5 treatment), the “BAL total cell number” value is 3.3±0.4 ×10^5/ml. For the same compound, in assay [1], the BAL eosinophils is 1.6±0.6 ×10^5/ml and the “airway eosinophil influx after antigen challenge” value was “dose-dependently blocked”. In assay [2], the “antigen (ovalbumin)-induced methacholine airway hyperresponsiveness” value is given as “complete blockade” and the “baseline airway responsiveness to methacholine” value is reported as “not altered; also recorded: neither drug alone had any effect”. In assay [3], the sRaw entry was “neither drug alone had any effect” and the “increase in sRaw caused by OA challenge (immediate bronchoconstriction)” value (shortened to “increase in sRaw caused by OA challenge”) is recorded as “not attenuated”.

For the compound `CC(C)CCCCCCCCC[C@@H]1CC(=O)N[C@@H](CCC(=O)O)C(=O)N[C@@H](CC(C)C)C(=O)N[C@H](CC(C)C)C(=O)N[C@@H](C(C)C)C(=O)N[C@@H](CC(=O)O)C(=O)N[C@H](CC(C)C)C(=O)N[C@@H](CC(C)C)C(=O)O1` [Surfactin] (EL[dL]VD[dL]L; linker N-C via X1), on cPLA2, the “activity of cPLA2” value is on record as “inhibit or reduce the activity”.

On to `CCCCC/C=C\C/C=C\C/C=C\C/C=C\CCCC(=O)C(F)(F)F` [TFMK, arachidonic trifluoromethyl ketone], for which, in the assay on guinea pigs, the BAL eosinophils is listed as 0.7±0.2 ×10^5/ml and the “airway eosinophil influx after treatment with IL-5” value is recorded as “dose-dependently blocked”. Besides, in assay [1], the BAL eosinophils is given as 2.1±0.7 ×10^5/ml and the “airway eosinophil influx after antigen challenge” value is recorded as “dose-dependently blocked”. Besides, the “PC200 (provocative concentration of methacholine causing a 200% increase in Pao)” value in assay [2] (antigen challenged animals pretreated with 20 mg/kg TFMK, 24 h after challenge, geometric mean (GSEM)) came out at 218 ± 0.08 µg/mL. Besides, the “baseline airway responsiveness to methacholine” value in assay [2] is given as “not altered; also recorded: neither drug alone had any effect”. For the same compound, the “increase in stimulated TXB2 production from whole blood” value in assay [4] was determined as 13.5±10.5%. Moreover, the “inflammatory cell infiltration in epithelial layer and lamina propria (histology)” value in the assay on bronchial airways is recorded as “blocked cell infiltration progressively”. Further, in assay [3], the sRaw entry is “neither drug alone had any effect” and the “increase in sRaw caused by OA challenge” value is “not attenuated”.

Take `CC(C)(C)c1ccc(C(=O)CCCN2CCC(OC(c3ccccc3)c3ccccc3)CC2)cc1` [ebastine]: the “antigen (ovalbumin)-induced methacholine airway hyperresponsiveness” value in assay [2] is recorded as “had no effect”. Also, the “increase in sRaw caused by OA challenge” value in assay [3] is given as “significantly attenuated”.

For `COc1ccc2c(c1)c(CC(=O)O)c(C)n2C(=O)c1ccc(Cl)cc1` [indomethacin], the “eosinophil count in BAL fluid” value in assay [1] is given as “no effect”. The “antigen (ovalbumin)-induced methacholine airway hyperresponsiveness” value in assay [2] was “neither indomethacin, a COX inhibitor, nor AA861, a 5-LO inhibitor, blocked”. Besides, the “increase in sRaw caused by OA challenge” value in assay [3] was “not attenuated”.

Source of the values: patent US20020165119A1, “Method of treating inflammatory conditions by inhibiting cytosolic phospholipase A2” (priority 2001, published 2002).
